Experimental data taken from a melting point compilation (Tetko et al.; mined from patent text by program, amines drawn as free bases though some values may be those of a salt).

Q: With O=C(c1ccc(-c2ccn(C(=O)c3ccc(Cl)cc3Cl)n2)cc1)N1Cc2cccn2Cc2ccccc21 as the compound, how does the melting point read?
A: 180 to 182 °C

Q: For O=C(O)CCC(NC(=O)c1cccc(-c2ccccc2OC2OC(CO)C(O)C(O)C2O)c1)C(=O)O (stereo not drawn), which melting point is on record?
A: 109 to 112 °C

Q: With O=C(CCl)N1CCOc2ccccc21 as the compound, how does the melting point read?
A: 107 to 108 °C

Q: With Cc1ccc(-c2[nH]c3ccccc3c(=O)c2Cc2ccncc2)cc1 as the compound, how does the melting point read?
A: 264 to 266 °C

Q: With COc1c(Cl)ccc(C(=O)O)c1SC as the compound, how does the melting point read?
A: 98 to 99 °C

Q: For O=c1ccn(CC(O)CO)c(C(OC2CCCCO2)c2ccccc2)c1OCc1ccccc1 (stereo not drawn), which melting point is on record?
A: 190 to 206 °C

Q: With NNC(=O)C1(N)CCN(Cc2ccccc2)CC1 as the compound, how does the melting point read?
A: 231 °C

Q: With O=C(NCc1ccccn1)c1ccc(C=Cc2ccccc2OCc2ccccc2)cc1 as the compound, how does the melting point read?
A: 123 to 127 °C

Q: Which melting point does the source give for O=C1C2=C(SCCS2)C(O)N1c1ccc2c(Cl)ccnc2n1 (stereo not drawn) here?
A: 300 to 305 °C

Q: With CCCc1nc(OC)c(NC(=O)N2CCN(c3cccc(O)c3)CC2)cc1C as the compound, how does the melting point read?
A: 153 to 155 °C

Q: Which melting point does the source give for COc1ccc(-n2ccc3ccccc32)cc1F here?
A: 65 to 67 °C

Q: For CNC(=O)NN=C(c1ccc([N+](=O)[O-])cc1)c1cc2c(cc1C[C@H](C)O)OCO2, which melting point is on record?
A: 238 °C

Q: Which melting point does the source give for CCc1nc(-c2cnccn2)no1 here?
A: 52 to 57 °C

Q: With C[Si](C)(C)C(CN)CC(=O)O (stereo not drawn) as the compound, how does the melting point read?
A: 199 to 201 °C

Q: Which melting point does the source give for CCCC1CCc2c(c(F)c(F)c3oc(C)cc23)O1 (stereo not drawn) here?
A: 75 °C

Q: With O=C(C1CCN(S(=O)(=O)c2ccc3cc(Br)ccc3c2)CC1)N1CCN(c2ccncc2)CC1 as the compound, how does the melting point read?
A: 229 to 230 °C

Q: For Oc1ccc(-c2ncc3ncc(Nc4ccncc4)cc3n2)cc1, which melting point is on record?
A: > 268 °C

Q: For O=c1[nH]c(CCl)c(Br)c(=O)[nH]1, which melting point is on record?
A: 245 °C

Q: For CC(=NO)C(C)(C)NCC(O)CNC(C)(C)C(CCn1ccnc1[N+](=O)[O-])=NO (stereo not drawn), which melting point is on record?
A: 62 to 64 °C

Q: Which melting point does the source give for CCn1c(=O)c(=O)[nH]c2cccc(C)c21 here?
A: > 300 °C

Q: With COc1ccccc1NC1c2cc(NC(=O)CC(C)(C)C)c(C)c(C)c2OC1(C)C (stereo not drawn) as the compound, how does the melting point read?
A: 184 to 185 °C

Q: With O=C(c1ccccc1)c1cc(-c2ccncc2)sc1-c1ccncc1 as the compound, how does the melting point read?
A: 168 to 170 °C

Q: With N#Cc1c[nH]c2cccc(OCc3ccccc3)c12 as the compound, how does the melting point read?
A: 139 to 141 °C

Q: For Cc1[nH]c(=O)c(C#N)cc1-c1ccccc1, which melting point is on record?
A: 280 to 290 °C

Q: For CCn1c(=O)ccc2cnc(Nc3ccc(OC)cc3)nc21, which melting point is on record?
A: 196 to 197 °C

Q: Which melting point does the source give for O=c1[nH]c2ccc(NCCCc3ccccc3)cc2o1 here?
A: 129 to 130 °C

Q: For Sc1nncn1C1CCCCC1, which melting point is on record?
A: 162 to 165 °C

Q: For CC(C)(c1ccc(OP(=O)(c2ccccc2)c2ccccc2)cc1)c1ccc(OP(=O)(c2ccccc2)c2ccccc2)cc1, which melting point is on record?
A: 71 to 72 °C

Q: For CN(C)c1nc(N)c(-c2cc(Cl)cc(Cl)c2Cl)c(C(F)(F)F)n1, which melting point is on record?
A: 124 to 126 °C

Q: Which melting point does the source give for CNC1=NN(C(=O)c2ccccc2)C(C)(C)S1 here?
A: 130 to 136 °C

Q: With COCCOc1ccnc2c(NC(=O)c3c(Cl)cccc3Cl)cccc12 as the compound, how does the melting point read?
A: 150 to 152 °C

Q: For Fc1ccc(COc2ncc(F)c(N=CN3CCCC3)n2)cc1, which melting point is on record?
A: 102 to 103 °C

Q: Which melting point does the source give for C=CC(=O)NC(=O)NCCS(=O)(=O)C=C here?
A: 177 to 179 °C

Q: For CC(=O)Nc1ccc(-c2cc(C(=O)c3ccc(Cl)cc3)sc2N2CCOCC2)cc1, which melting point is on record?
A: 120 °C

Q: Which melting point does the source give for COC(=O)Cc1cc(O)c(C(C)(C)C)cc1C here?
A: 100 to 102 °C

Q: For CCCSC(C(N)=O)c1cc(C)cc(C(=O)c2ccc(F)cc2)c1N (stereo not drawn), which melting point is on record?
A: 130 to 132 °C

Q: Which melting point does the source give for N#CN=CNc1nc(OCc2ccc(F)cc2)ncc1F here?
A: 148 to 149 °C

Q: Which melting point does the source give for C=CCNc1ccc(N(CCO)CCO)cc1[N+](=O)[O-] here?
A: 73 to 75 °C

Q: For COc1ccc(C=Cc2ccc(CBr)cc2)c(Cl)c1, which melting point is on record?
A: 99 to 100 °C

Q: For CCN(CC)CCN1CCN(Cc2ccc(O)cc2)C(c2ccccc2)C1 (stereo not drawn), which melting point is on record?
A: 108 to 112 °C

Q: For C=CCn1c(=O)n(-c2ccc3c(c2)OCO3)c2ncccc21, which melting point is on record?
A: 100 °C

Q: Which melting point does the source give for COc1ccc(SCc2ccc(F)cc2F)c(Cl)c1Cl here?
A: 86 to 88 °C

Q: With O=S(=O)(c1ccc(Cl)cc1)N1CCC[C@@H](Nc2nccc(-c3c(-c4cccc(O)c4)nc4sccn34)n2)C1 as the compound, how does the melting point read?
A: 174 to 177 °C

Q: With CC(C)C[C@@H](C(=O)O)N(C)C(=O)OC(C)(C)C as the compound, how does the melting point read?
A: 53 to 55 °C

Q: Which melting point does the source give for c1ccc2c(c1)CCc1ccccc1C2CCN1CCCC1 here?
A: 51 to 53 °C

Q: With Cc1cc(Cn2nnn(-c3cccc(C(F)(F)F)c3)c2=O)ccc1N as the compound, how does the melting point read?
A: 89 to 94 °C

Q: With CC(=O)COc1cccc2ccc(OC(C)=O)nc12 as the compound, how does the melting point read?
A: 79 to 80 °C

Q: Which melting point does the source give for COC(=O)CCC#Cc1cc(F)c(Cl)cc1N here?
A: 67 to 68 °C

Q: For CCCCCS(=O)(=O)NC(=O)/C=C/c1ccc(OCCCOCCOC)cc1Oc1ncc(C(F)(F)F)cc1Cl, which melting point is on record?
A: 103 to 105 °C

Q: For CS(=O)(=O)c1ccc(-n2nccc2-c2ccc(-c3ccco3)cc2)cc1F, which melting point is on record?
A: 155 to 156 °C

Q: For CC(=O)Nc1ccc(O[C@@H]2CNC[C@H]2O)cc1 (relative stereo), which melting point is on record?
A: 200 °C

Q: Which melting point does the source give for CC(C)(C)c1cc(-c2c[nH]c(S(C)(=O)=O)n2)cc(C(C)(C)C)c1O here?
A: 119 to 120 °C

Q: For CC(C)NC(=O)N(Nc1cccc(Cl)c1Cl)C1=CCCN1, which melting point is on record?
A: 109 to 111 °C

Q: With CCOC(=O)N(C)N1CCc2ccccc2C(Oc2ccc(C(F)(F)F)cc2)C1 (stereo not drawn) as the compound, how does the melting point read?
A: 204 to 205 °C

Q: For O[C@@H]1CNC[C@H](c2ccc(C(F)(F)F)cc2)C1 (relative stereo), which melting point is on record?
A: 189 to 192 °C

Q: With CNC(=O)[C@H]1S[C@@H](n2cnc3c(NCc4cccc(I)c4)nc(Cl)nc32)[C@H](O)[C@@H]1O as the compound, how does the melting point read?
A: 140 to 141 °C

Q: Which melting point does the source give for O=C(c1cccs1)N1CCc2cc(S(=O)(=O)n3cc(-c4ccccc4)[nH]c3=O)ccc21 here?
A: 258 to 260 °C

Q: With CCCC(CCC)n1c(CC)nc2c1c(=O)n(C)c(=O)n2Cc1ccc(OC)cc1 as the compound, how does the melting point read?
A: 120 to 122 °C

Q: With O=C(c1n[nH]c2c(=O)[nH]c3cc(Cl)ccc3c(=O)c12)N1CCOCC1 as the compound, how does the melting point read?
A: 347 °C

Q: For CCOC(=O)C(C)c1ccc(CC2CCCCC2=NO)cc1 (stereo not drawn), which melting point is on record?
A: 102 to 104 °C

Q: For Cc1c(C(=O)c2ccccc2)c(NC(=O)CNO)cn1C, which melting point is on record?
A: 140 to 142 °C

Q: For CC12CCC3c4ccc(C(=O)O)cc4CCC3C1CCC2C(=O)Cc1ccccc1 (stereo not drawn), which melting point is on record?
A: 146 to 150 °C

Q: Which melting point does the source give for Cc1cc(-c2cc(COS(C)(=O)=O)c(=O)n(CC(C)C)n2)ccc1F here?
A: 115 to 117 °C

Q: For CN1C(=O)c2cc(N)ccc2Oc2ncccc21, which melting point is on record?
A: 158 to 160 °C

Q: For O=C(c1ccc([N+](=O)[O-])cc1Cl)N1CCCCc2sccc21, which melting point is on record?
A: 131 to 134 °C

Q: With CC(=O)c1ccc(-c2nccn2C)cc1 as the compound, how does the melting point read?
A: 88 to 93 °C

Q: Which melting point does the source give for c1cc(-n2ccnc2)cc(-n2cnc3cc(-c4ccoc4)cnc32)c1 here?
A: 202 to 204 °C

Q: With CC1Cc2c(N3CCN(C)CC3)c(F)c(N)c3c(=O)c(C(=O)O)cn1c23 (stereo not drawn) as the compound, how does the melting point read?
A: 240 to 243 °C

Q: With O=C1NC(=O)C(c2cn3c4c(cccc24)CCC3)=C1c1ccc(F)cc1 as the compound, how does the melting point read?
A: 234 to 235 °C

Q: For COC(=O)c1ccc(CN2CCN(C(=O)c3cc(C(F)(F)F)cc(C(F)(F)F)c3)[C@H](Cc3c[nH]c4ccccc34)C2)cc1, which melting point is on record?
A: 75 to 78 °C

Q: Which melting point does the source give for CNS(=O)(=O)c1cc(C(=O)CCC(=O)OC)ccc1Cl here?
A: 112 to 114 °C

Q: Which melting point does the source give for CC1(C)CC(O)C(C)(C)c2cc(CC=Cc3ccccc3C#N)ccc21 (stereo not drawn) here?
A: 163 to 165 °C

Q: Which melting point does the source give for CC(=O)C1=CCC2C3CCC4CC5OC5CC4(C)C3CCC12C (stereo not drawn) here?
A: 145 to 149 °C
